{"source": "patent US11814445B2", "about": "“Cyclic polypeptides for PCSK9 inhibition” (Ra Pharmaceuticals, Inc., priority 2018, dated 2023)", "format_in_all_cases": "binding", "key": {"[1]": {"biological_target": "human PCSK9 / human LDLR EGFa domain (Homo sapiens, UniProt Q8NBP7)", "sequence (Q8NBP7 153-692)": "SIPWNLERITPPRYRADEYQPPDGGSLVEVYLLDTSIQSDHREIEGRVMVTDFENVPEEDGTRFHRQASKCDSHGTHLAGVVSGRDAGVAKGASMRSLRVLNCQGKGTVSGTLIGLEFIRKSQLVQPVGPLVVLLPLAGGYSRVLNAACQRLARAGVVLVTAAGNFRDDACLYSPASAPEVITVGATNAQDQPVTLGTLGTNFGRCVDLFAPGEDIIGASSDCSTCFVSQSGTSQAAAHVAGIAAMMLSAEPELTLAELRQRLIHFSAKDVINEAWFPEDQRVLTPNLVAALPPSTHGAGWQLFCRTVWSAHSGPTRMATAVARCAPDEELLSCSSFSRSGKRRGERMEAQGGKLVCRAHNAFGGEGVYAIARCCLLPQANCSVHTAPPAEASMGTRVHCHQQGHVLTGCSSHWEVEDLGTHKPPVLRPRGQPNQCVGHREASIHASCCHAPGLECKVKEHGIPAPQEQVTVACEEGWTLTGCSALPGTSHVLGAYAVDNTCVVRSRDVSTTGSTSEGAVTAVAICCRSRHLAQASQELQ", "test": "TR-FRET assay of inhibition of the PCSK9-LDLR protein-protein interaction", "conditions": "20 nM human PCSK9, 20 nM human LDLR EGFa domain, 2 hours room temperature", "how_it_was_run": "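Compounds in dose-response are mixed with 20 nM human PCSK9 (avitag-biotinylated) and 20 nM his-tagged LDLR EGFa domain, plus 5 nM each streptavidin-Ulight and Eu-anti-6×His. After 2 h at room temperature in HEPES/NaCl/CaCl2 buffer with BSA and P20, TR-FRET is read and IC50 fitted (4-parameter).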"}, "PCSK9 [2]": {"biological_target": "T1, PCSK9 (Homo sapiens, UniProt Q8NBP7)", "T1 construct": "biotin (biotinylated)", "T1 sequence (Q8NBP7 153-692)": "as above", "test": "PCSK9 Alexa FRET Standard assay (displacement of AlexaFluor647 tagged cyclic peptide Reagent A)", "conditions": "0.5 nM PCSK9, 20 nM AF cyclic peptide Reagent A", "description": "A solution containing 1 nM biotinylated PCSK9+2.5 nM Lance Streptavidin Europium (Strep-Eu) was made in 50 mM HEPES pH 7.4, 0.15 M NaCl, 5 mM CaCl2), 0.01% BSA, and 0.01% Surfactant P20. A separate solution containing 40 nM of the AlexaFluor tagged cyclic peptide was made in the same buffer system. An Echo was used to transfer 0.750 ul of compound to an assay plate followed by the addition of 15 ul of PCSK9+Stept-Eu and 15 ul of AF peptide. The final assay volume was 30.750 ul containing 0.5 nM PCSK9, 1.25 nM Strep-Eu, and 20 nM AF cyclic peptide. The reaction was incubated at room temperature for at least two hours prior to fluorescence measurements using an Envision Multilabel Reader. IC50 values were determined by fitting data to a sigmoidal dose-response curve using nonlinear regression. Ki was then calculated from the IC50 and the KD of AF cyclic peptide. Counts (B-counts) of the europium-labeled PCSK9 were followed to observe if compounds were […]. A fall off of the B-counts likely indicated a false positive of inhibition. Data from this procedure was reported as “A=‘numerical value’ (nanomolar)”"}, "PCSK9 [3]": {"biological_target": "T1, PCSK9", "test": "PCSK9 Alexa FRET Plus assay (displacement of AlexaFluor647 tagged cyclic peptide Reagent B)", "conditions": "0.5 nM PCSK9, 960 nM AF cyclic peptide Reagent B", "description": "A solution containing 1 nM biotinylated PCSK9+2.5 nM Lance Streptavidin Europium (Strep-Eu) was made in 50 mM HEPES pH 7.4, 0.15 M NaCl, 5 mM CaCl2), 0.01% BSA, and 0.01% Surfactant P20. A separate solution containing 1920 nM of the AlexaFluor tagged cyclic peptide was made in the same buffer system. An Echo was used to transfer 0.075 ul of compound plus 0.675 ul of DMSO to each well of an assay plate followed by the addition of 15 ul of PCSK9+Stept-Eu and 15 ul of AF peptide. The final assay volume was 30.750 ul containing 0.5 nM PCSK9, 1.25 nM Strep-Eu, and 960 nM AF cyclic peptide. The reaction was incubated at room temperature for at least two hours prior to fluorescence measurements using an Envision Multilabel Reader. IC50 values were determined by fitting data to a sigmoidal dose-response curve using nonlinear regression. Ki was then calculated from the IC50 and the KD of AF cyclic peptide. Counts (B-counts) of the europium-labeled PCSK9 were followed to observe if compounds were adversely affecting PCSK9. A fall off of the B-counts likely indicated a false positive of inhibition. Data from this procedure was reported as “P=‘numerical value’ (nanomolar)”"}}, "note": "Numbered stars: 1 amine (or outer) side, 2 acyl side, 3 side chain; on linkers, the order of the positions; unused ones are H or OH. Bridge positions count the residues as written; N and C are the ends. Square brackets hold non-standard residues; d marks the D form. Peptide text beside a SMILES is read from it. Phe(4-tBu) = CC(C)(C)c1ccc(C[C@H](N)C(=O)O)cc1; Trp(5-F) = N[C@@H](Cc1c[nH]c2ccc(F)cc12)C(=O)O; X1 = O=C(CCSCc1cccc(CSCCN[*:1])c1)[*:2]; 2Nal = N[C@@H](Cc1ccc2ccccc2c1)C(=O)O; mXylylene = c1cc(C[*:1])cc(C[*:2])c1; Bta = N[C@@H](Cc1csc2ccccc12)C(=O)O; hCha = N[C@@H](CCC1CCCCC1)C(=O)O; Cha = N[C@@H](CC1CCCCC1)C(=O)O; Pip = O=C(O)[C@@H]1CCCCN1; Mpa = O=C(O)CCS"}
{"smiles": "C[C@@H]1NC(=O)CCSCc2cccc(c2)CSCCNC(=O)[C@@H]2CCCN2C(=O)[C@H](Cc2ccccc2)NC(=O)[C@H](C)NC(=O)[C@@H]2CCCN2C(=O)[C@H](Cc2c[nH]c3ccc(F)cc23)NC(=O)[C@H](Cc2c[nH]c3ccc(F)cc23)NC(=O)[C@@H](C)NC1=O", "note": "[Compound 062] (cyclo(AFP[X1]A[dA][Trp(5-F)][Trp(5-F)]P))", "values": [{"measurement": "IC50", "setting": "[1]", "value": "1 to 100", "unit": "nM"}, {"measurement": "IC50", "setting": "PCSK9 [2]", "value": "100 to 1000", "unit": "nM"}, {"measurement": "IC50", "setting": "PCSK9 [3]", "value": "1 to 100", "unit": "nM"}]}
{"smiles": "C[C@@H]1NC(=O)[C@@H]2CCCN2C(=O)[C@H](Cc2csc3ccccc23)NC(=O)[C@H](Cc2c[nH]c3ccc(F)cc23)NC(=O)CNC(=O)[C@H](CCCCN)NC(=O)CCSCc2cccc(c2)CSC[C@@H](C(N)=O)NC(=O)[C@@H]2CCCN2C(=O)[C@H](Cc2ccc(O)cc2)NC1=O", "note": "[Compound 024] ([Mpa]KG[Trp(5-F)][Bta]PAYPC-NH2; linker 1-10 via mXylylene)", "values": [{"measurement": "IC50", "setting": "[1]", "value": "1 to 100", "unit": "nM"}, {"measurement": "IC50", "setting": "PCSK9 [2]", "value": "1 to 100", "unit": "nM"}, {"measurement": "IC50", "setting": "PCSK9 [3]", "value": "1 to 100", "unit": "nM"}]}
{"smiles": "C[C@@H]1NC(=O)[C@@H]2CCCN2C(=O)[C@H](CCC2CCCCC2)NC(=O)[C@H](Cc2c[nH]c3ccc(F)cc23)NC(=O)CNC(=O)[C@H](CCCCN)NC(=O)CCSCc2cccc(c2)CSC[C@@H](C(N)=O)NC(=O)[C@@H]2CCCN2C(=O)[C@H](Cc2ccc(O)cc2)NC1=O", "note": "[Compound 026] ([Mpa]KG[Trp(5-F)][hCha]PAYPC-NH2; linker 1-10 via mXylylene)", "values": [{"measurement": "IC50", "setting": "[1]", "value": "1 to 100", "unit": "nM"}, {"measurement": "IC50", "setting": "PCSK9 [2]", "value": "1 to 100", "unit": "nM"}, {"measurement": "IC50", "setting": "PCSK9 [3]", "value": "100 to 500", "unit": "nM"}]}
{"smiles": "C[C@@H]1NC(=O)[C@@H]2CCCN2C(=O)[C@H](CC2CCCCC2)NC(=O)[C@H](Cc2c[nH]c3ccc(F)cc23)NC(=O)CNC(=O)[C@H](CCCCN)NC(=O)CCSCc2cccc(c2)CSC[C@@H](C(N)=O)NC(=O)[C@@H]2CCCN2C(=O)[C@H](Cc2ccc(O)cc2)NC1=O", "note": "[Compound 025] ([Mpa]KG[Trp(5-F)][Cha]PAYPC-NH2; linker 1-10 via mXylylene)", "values": [{"measurement": "IC50", "setting": "[1]", "value": "1 to 100", "unit": "nM"}, {"measurement": "IC50", "setting": "PCSK9 [2]", "value": "1 to 100", "unit": "nM"}, {"measurement": "IC50", "setting": "PCSK9 [3]", "value": "1 to 100", "unit": "nM"}]}
{"smiles": "C[C@@H]1NC(=O)[C@@H]2CCCN2C(=O)[C@H](Cc2ccc(C(C)(C)C)cc2)NC(=O)[C@H](Cc2c[nH]c3ccc(F)cc23)NC(=O)CNC(=O)[C@H](CCCCN)NC(=O)CCSCc2cccc(c2)CSC[C@@H](C(N)=O)NC(=O)[C@@H]2CCCN2C(=O)[C@H](Cc2ccc(O)cc2)NC1=O", "note": "[Compound 016] ([Mpa]KG[Trp(5-F)][Phe(4-tBu)]PAYPC-NH2; linker 1-10 via mXylylene)", "values": [{"measurement": "IC50", "setting": "[1]", "value": "1 to 100", "unit": "nM"}, {"measurement": "IC50", "setting": "PCSK9 [2]", "value": "1 to 100", "unit": "nM"}, {"measurement": "IC50", "setting": "PCSK9 [3]", "value": "1 to 100", "unit": "nM"}]}
{"smiles": "C[C@@H]1NC(=O)CCSCc2cccc(c2)CSCCNC(=O)[C@@H]2CCCN2C(=O)[C@H](Cc2ccc3ccccc3c2)NC(=O)[C@H](C)NC(=O)[C@@H]2CCCCN2C(=O)[C@H](Cc2c[nH]c3ccc(F)cc23)NC(=O)[C@H](Cc2c[nH]c3ccc(F)cc23)NC(=O)[C@@H](C)NC1=O", "note": "[Compound 089] (cyclo([2Nal]P[X1]A[dA][Trp(5-F)][Trp(5-F)][Pip]A))", "values": [{"measurement": "IC50", "setting": "[1]", "value": "1 to 100", "unit": "nM"}, {"measurement": "IC50", "setting": "PCSK9 [2]", "value": "1 to 100", "unit": "nM"}, {"measurement": "IC50", "setting": "PCSK9 [3]", "value": "1 to 100", "unit": "nM"}]}
{"smiles": "COc1ccc(C[C@@H]2NC(=O)[C@H]([C@@H](C)OC)NC(=O)[C@H]3CCCN3C(=O)[C@H]3Cc4cn(c5ccc(F)cc45)Cc4cn(nn4)-c4cc(cc(c4)CSCCC(=O)N[C@@H](C)C(=O)N[C@H](C)C(=O)N[C@@H](Cc4c[nH]c5ccc(F)cc45)C(=O)N3)CSCCNC(=O)[C@]3(C)CCCN3C2=O)cc1", "note": "[Compound 131]", "values": [{"measurement": "IC50", "setting": "PCSK9 [2]", "value": "1 to 100", "unit": "nM"}, {"measurement": "IC50", "setting": "PCSK9 [3]", "value": "1 to 100", "unit": "nM"}]}
{"smiles": "COc1ccc(C[C@@H]2NC(=O)[C@H]([C@@H](C)O)NC(=O)[C@H]3C[C@@H](F)CN3C(=O)[C@H]3Cc4cn(c5ccc(F)cc45)Cc4cn(nn4)-c4cc(cc(c4)CSCCC(=O)N[C@@H](C)C(=O)N[C@H](C)C(=O)N[C@@H](Cc4c[nH]c5ccc(F)cc45)C(=O)N3)CSCCNC(=O)[C@]3(C)CCCN3C2=O)cc1", "note": "[Compound 130]", "values": [{"measurement": "IC50", "setting": "PCSK9 [2]", "value": "100 to 1000", "unit": "nM"}, {"measurement": "IC50", "setting": "PCSK9 [3]", "value": "100 to 500", "unit": "nM"}]}
